Measured values: patent publication US20070010671A1, “Novel quinazoline derivatives and methods of treatment related to the use thereof” (priority 2003, published 2007)

target: MCH receptor (Homo sapiens, UniProt Q99705); experiment: High throughput functional screening FLIPR/FDSS6000: inhibition of MCH-evoked intracellular Ca2+ changes; format: cell-based; conditions: class by percent of control at 10^-7 M or IC50
Procedure, shortened: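 Cells expressing constitutively active MCH receptor, loaded with 4 μM Fluo4-AM for 1 h at 37 °C, were pretreated 3 min with compound, then challenged with MCH (50 nM for antagonist testing). MCH-evoked [Ca2+]i transients followed by FLIPR or FDSS (ex 488/em 530 nm) over 290 s.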

Structure (SMILES) | class
CN(C)c1nc(N[C@H]2CC[C@@H](NC(=O)Nc3ccc4c(c3)C(F)(F)OC(F)(F)O4)CC2)nc2ccccc12 [compound 335] | 3 (Class 3: The value of percent of control at 10^−7 M was more than 60% or the value of IC50 was more than 200 nM.)
CN(C)c1nc(N[C@H]2CC[C@@H](NC(=O)NCCc3cccs3)CC2)nc2ccccc12 [compound 337, N-(cis-4-{[4-(dimethylamino)quinazolin-2-yl]amino}cyclohexyl)-N′-[2-(2-thienyl)ethyl]urea] | 2 (Class 2: The value of percent of control at 10^−7 M was from 40% to 60% or the value of IC50 was from 50 nM to 200 nM.)
CN(C)c1nc(N[C@H]2CC[C@@H](NC(=O)Nc3ccc4c(c3)OCCO4)CC2)nc2ccccc12 [compound 338, N-(2,3-dihydro-1,4-benzodioxin-6-yl)-N′-(cis-4-{[4-(dimethylamino)quinazolin-2-yl]amino}cyclohexyl)urea] | 1 (Class 1: The value of percent of control at 10^−7 M was less than 40% or the value of IC50 was less than 50 nM.)
CC(C)c1cc(Br)c(NC(=O)N[C@H]2CC[C@@H](Nc3nc(N(C)C)c4ccccc4n3)CC2)c(Br)c1 [compound 339, N-(2,6-dibromo-4-isopropylphenyl)-N′-(cis-4-{[4-(dimethylamino)quinazolin-2-yl]amino}cyclohexyl)urea] | 1 (Class 1: The value of percent of control at 10^−7 M was less than 40% or the value of IC50 was less than 50 nM.)
CN(C)c1nc(N[C@H]2CC[C@@H](NC(=O)Nc3ccccc3C#N)CC2)nc2ccccc12 [compound 340] | 3 (Class 3: The value of percent of control at 10^−7 M was more than 60% or the value of IC50 was more than 200 nM.)
CN(C)c1nc(N[C@H]2CC[C@@H](NC(=O)Nc3cccs3)CC2)nc2ccccc12 [compound 341] | 3 (Class 3: The value of percent of control at 10^−7 M was more than 60% or the value of IC50 was more than 200 nM.)
COc1ccc(NC(=O)N[C@H]2CC[C@@H](Nc3nc(N(C)C)c4ccccc4n3)CC2)cc1OC1CCCC1 [compound 342, N-[3-(cyclopentyloxy)-4-methoxyphenyl]-N′-(cis-4-{[4-(dimethylamino)quinazolin-2-yl]amino}cyclohexyl)urea] | 1 (Class 1: The value of percent of control at 10^−7 M was less than 40% or the value of IC50 was less than 50 nM.)
CN(C)c1nc(N[C@H]2CC[C@@H](NC(=O)Nc3ccc4c(c3)OCCCO4)CC2)nc2ccccc12 [compound 343, N-(3,4-dihydro-2H-1,5-benzodioxepin-7-yl)-N′-(cis-4-{[4-(dimethylamino)quinazolin-2-yl]amino}cyclohexyl)urea] | 1 (Class 1: The value of percent of control at 10^−7 M was less than 40% or the value of IC50 was less than 50 nM.)
CN(C)c1nc(N[C@H]2CC[C@@H](NC(=O)Nc3ccsc3)CC2)nc2ccccc12 [compound 344] | 3 (Class 3: The value of percent of control at 10^−7 M was more than 60% or the value of IC50 was more than 200 nM.)
CN(C)c1nc(N[C@H]2CC[C@@H](NC(=O)Nc3ccc(C(C)(C)C)cc3)CC2)nc2ccccc12 [compound 345] | 3 (Class 3: The value of percent of control at 10^−7 M was more than 60% or the value of IC50 was more than 200 nM.)
CCCCc1ccc(NC(=O)N[C@H]2CC[C@@H](Nc3nc(N(C)C)c4ccccc4n3)CC2)c(C)c1 [compound 346] | 1 (Class 1: The value of percent of control at 10^−7 M was less than 40% or the value of IC50 was less than 50 nM.)
Cc1cc(NC(=O)N[C@H]2CC[C@@H](Nc3nc(N(C)C)c4ccccc4n3)CC2)c(C(F)(F)F)o1 [compound 347, N-(cis-4-{[4-(dimethylamino)quinazolin-2-yl]amino}cyclohexyl)-N′-[5-methyl-2-(trifluoromethyl)-3-furyl]urea] | 1 (Class 1: The value of percent of control at 10^−7 M was less than 40% or the value of IC50 was less than 50 nM.)
CN(C)c1nc(N[C@H]2CC[C@@H](NC(=O)Nc3ccc(-c4ccccc4)s3)CC2)nc2ccccc12 [compound 348] | 3 (Class 3: The value of percent of control at 10^−7 M was more than 60% or the value of IC50 was more than 200 nM.)
CN(C)c1nc(N[C@H]2CC[C@@H](NC(=O)Nc3cc(F)cc4c3OCOC4)CC2)nc2ccccc12 [compound 349, N-(cis-4-{[4-(dimethylamino)quinazolin-2-yl]amino}cyclohexyl)-N′-(6-fluoro-4H-1,3-benzodioxin-8-yl)urea] | 2 (Class 2: The value of percent of control at 10^−7 M was from 40% to 60% or the value of IC50 was from 50 nM to 200 nM.)
CN(C)c1nc(N[C@H]2CC[C@@H](NC(=O)NC3CCN(C(=O)OCc4ccccc4)CC3)CC2)nc2ccccc12 [compound 350] | 3 (Class 3: The value of percent of control at 10^−7 M was more than 60% or the value of IC50 was more than 200 nM.)
CN(C)c1ccc(NC(=O)N[C@H]2CC[C@@H](Nc3nc(N(C)C)c4ccccc4n3)CC2)cc1 [compound 351] | 3 (Class 3: The value of percent of control at 10^−7 M was more than 60% or the value of IC50 was more than 200 nM.)

Structure (SMILES) | class
CN(C)c1nc(N[C@H]2CC[C@@H](NC(=O)Nc3cc(Cl)nc(Cl)c3)CC2)nc2ccccc12 [compound 352] | 3 (Class 3: The value of percent of control at 10^−7 M was more than 60% or the value of IC50 was more than 200 nM.)
Cc1noc(C)c1NC(=O)N[C@H]1CC[C@@H](Nc2nc(N(C)C)c3ccccc3n2)CC1 [compound 353, N-(cis-4-{[4-(dimethylamino)quinazolin-2-yl]amino}cyclohexyl)-N′-(3,5-dimethylisoxazol-4-yl)urea] | 2 (Class 2: The value of percent of control at 10^−7 M was from 40% to 60% or the value of IC50 was from 50 nM to 200 nM.)
Cc1noc(-c2ccccc2)c1NC(=O)N[C@H]1CC[C@@H](Nc2nc(N(C)C)c3ccccc3n2)CC1 [compound 354, N-(cis-4-{[4-(dimethylamino)quinazolin-2-yl]amino}cyclohexyl)-N′-(3-methyl-5-phenylisoxazol-4-yl)urea] | 1 (Class 1: The value of percent of control at 10^−7 M was less than 40% or the value of IC50 was less than 50 nM.)
Cc1onc(-c2ccccc2)c1NC(=O)N[C@H]1CC[C@@H](Nc2nc(N(C)C)c3ccccc3n2)CC1 [compound 355, N-(cis-4-{[4-(dimethylamino)quinazolin-2-yl]amino}cyclohexyl)-N′-(5-methyl-3-phenylisoxazol-4-yl)urea] | 1 (Class 1: The value of percent of control at 10^−7 M was less than 40% or the value of IC50 was less than 50 nM.)
C#CCNC(=S)N[C@H]1CC[C@@H](Nc2nc(N(C)C)c3ccccc3n2)CC1 [compound 356] | 3 (Class 3: The value of percent of control at 10^−7 M was more than 60% or the value of IC50 was more than 200 nM.)
CN(C)c1nc(N[C@H]2CC[C@@H](NC(=S)Nc3ccc(S(=O)(=O)N4CCCCC4)cc3)CC2)nc2ccccc12 [compound 357] | 3 (Class 3: The value of percent of control at 10^−7 M was more than 60% or the value of IC50 was more than 200 nM.)
CN(C)c1nc(N[C@H]2CC[C@@H](NC(=S)NCCC3=CCCCC3)CC2)nc2ccccc12 [compound 358] | 2 (Class 2: The value of percent of control at 10^−7 M was from 40% to 60% or the value of IC50 was from 50 nM to 200 nM.)
Cc1cccc(NC(=S)N[C@H]2CC[C@@H](Nc3nc(N(C)C)c4ccccc4n3)CC2)c1C [compound 359, N-(cis-4-{[4-(dimethylamino)quinazolin-2-yl]amino}cyclohexyl)-N′-(2,3-dimethylphenyl)thiourea] | 1 (Class 1: The value of percent of control at 10^−7 M was less than 40% or the value of IC50 was less than 50 nM.)
CN(C)c1nc(N[C@H]2CC[C@@H](NC(=S)Nc3c(F)cc(Br)cc3Br)CC2)nc2ccccc12 [compound 360, N-(2,4-dibromo-6-fluorophenyl)-N′-(cis-4-{[4-(dimethylamino)quinazolin-2-yl]amino}cyclohexyl)thiourea] | 1 (Class 1: The value of percent of control at 10^−7 M was less than 40% or the value of IC50 was less than 50 nM.)
Cc1cc(Cl)cc(Cl)c1NC(=S)N[C@H]1CC[C@@H](Nc2nc(N(C)C)c3ccccc3n2)CC1 [compound 361, N-(2,4-dichloro-6-methylphenyl)-N′-(cis-4-{[4-(dimethylamino)quinazolin-2-yl]amino}cyclohexyl)thiourea] | 1 (Class 1: The value of percent of control at 10^−7 M was less than 40% or the value of IC50 was less than 50 nM.)
Cc1ccc(C)c(NC(=S)N[C@H]2CC[C@@H](Nc3nc(N(C)C)c4ccccc4n3)CC2)c1 [compound 362, N-(cis-4-{[4-(dimethylamino)quinazolin-2-yl]amino}cyclohexyl)-N′-(2,5-dimethylphenyl)thiourea] | 2 (Class 2: The value of percent of control at 10^−7 M was from 40% to 60% or the value of IC50 was from 50 nM to 200 nM.)
CC(C)c1ccc(NC(=S)N[C@H]2CC[C@@H](Nc3nc(N(C)C)c4ccccc4n3)CC2)c(Br)c1 [compound 363, N-(2-bromo-4-isopropylphenyl)-N′-(cis-4-{[4-(dimethylamino)quinazolin-2-yl]amino}cyclohexyl)thiourea] | 2 (Class 2: The value of percent of control at 10^−7 M was from 40% to 60% or the value of IC50 was from 50 nM to 200 nM.)
CN(C)c1nc(N[C@H]2CC[C@@H](NC(=S)Nc3cc(F)ccc3Br)CC2)nc2ccccc12 [compound 364] | 2 (Class 2: The value of percent of control at 10^−7 M was from 40% to 60% or the value of IC50 was from 50 nM to 200 nM.)
CCOc1ccccc1NC(=S)N[C@H]1CC[C@@H](Nc2nc(N(C)C)c3ccccc3n2)CC1 [compound 365, N-(cis-4-{[4-(dimethylamino)quinazolin-2-yl]amino}cyclohexyl)-N′-(2-ethoxyphenyl)thiourea] | 1 (Class 1: The value of percent of control at 10^−7 M was less than 40% or the value of IC50 was less than 50 nM.)
Cc1cccc(C(C)C)c1NC(=S)N[C@H]1CC[C@@H](Nc2nc(N(C)C)c3ccccc3n2)CC1 [compound 366, N-(cis-4-{[4-(dimethylamino)quinazolin-2-yl]amino}cyclohexyl)-N′-(2-isopropyl-6-methylphenyl)thiourea] | 1 (Class 1: The value of percent of control at 10^−7 M was less than 40% or the value of IC50 was less than 50 nM.)
